Results from patent US9017654B2, “Preparation for vaccination, vaccination method and use of a vaccination preparation” (priority 2004, dated 2015).

Tests used:
[1] = tested on: CFSE-marked syngenic spleen cells charged with SGP peptide (target cells for the CTLs); assay: In vivo killer assay; parameters: species or system mice; settings: for specific reaction (FIG. 2, functionality of transcutaneously activated CTL): transcutaneous treatment, in vivo killer assay 6 days after immunisation
Procedure: The specific cytotoxic functionality of the activated cells was determined by means of what is known as an in vivo killer assays 6 days after the last immunisation. For this purpose spleen cells marked with CFSE (5,6-carboxyfluorescein diacetate succinimidylester, Molecular Probes) from syngenic mice were used as target cells for the cytotoxic T cells (CTLs). Half of the cells were dyed with 3 μM CFSE, the other half with 0.3 μM CFSE. The cells marked with 3 μM CFSE were charged with the synthetic SGP peptide (10 μM peptide; 40×10^6 cells per ml ISC medium; 1 h; 37° C.) and these were then washed twice with medium and twice with PBS. The cells marked with 0.3 μM CFSE were only incubated in ISC medium and also washed. The cells were mixed in a ratio of 1:1 and the mice were injected in vivo with 15×10^6 cells in 300 μl PBS in each case. After 18 h the mice were killed and the spleen cells removed and flow cytometrically analysed. The CFSE-positive cells were counted in a FACS-Canto flow cytometer. The specific lysis resulted from the ratio of cell counts of the cells charged with peptide and strongly marked with CFSE and the cells that were not charged with peptide and were weakly marked with CFSE. Since the two cell populations had been used in a ratio of 1:1 the number of cells not charged with peptide tallies with the original number of cells charged with peptide. The specific lysis is then calculated as follows:
[formula] [formula] CFSE Marking
The spleen cells were prepared as described above. Following ACK lysis the cells were resuspended in 10 ml PBS, counted and adjusted to 2×10^7 cells per ml. The cell suspension was mixed with an adequate volume of a 6 μM or 0.6 μM CFSE solution (in PBS) and incubated for 4 min at 37° C. The reaction was then stopped following addition of double the volume of ISC medium supplemented with 10% foetal calf serum (FCS). The cells were washed twice with FCS-free medium and counted.
To determine the functionality of the activated cells an in vivo killer assay was carried out 6 days after immunisation. For this purpose syngenic spleen cells marked with a high CFSE concentration were charged with peptide, mixed 1:1 with cells marked with a weak CFSE concentration and not charged with peptide and transferred i.v. into the mice. […] The fluorescence of the spleen cells in the FL-1 channel (CFSE) can be seen in each case. The lysis was calculated to the number of uncharged cells and is given in percent (B).
To determine the functionality of the activated cells an in vivo killer assay was carried out 6 days after immunisation. […] The fluorescence of the spleen cells in the FL-1 channel (CFSE) can be seen in each case. The specific lysis was calculated to the number of uncharged cells and is given in percent.

[2] = tested on: TCR transgenic cytotoxic T cells (CTL), CD45.1-positive CD8+; assay: Analysis of the number of adoptively transferred transgenic cytotoxic T cells (CTL) in blood/spleen after immunisation (flow cytometry); assay type: in vivo, mice
Source text: In this model a defined transgenic, which codes for a specific T cell receptor that recognises a specific MHC class I ligand ([…] (SEQ ID NO: 23); abbreviated to SGP) from the adenovirus type 5 in the context of MHC class I (H2-D^b), was introduced into mice. As already characterised by the inventors [“M. Hofmann, M. Radask, G. Rechtsteiner, K. Wiemann, M. Grander, U. Bien-Gräter, R. Offfringa, R.E.M. Toes, H.G. Rammensee, H. Schild; T cell avidity determines the level of CTL activation; Eur. J. Immunol. 2004: 34, 1798 to 1806”], the cytotoxic T cells (CTL) from these animals were only activated if they came into contact with this MHC class I ligand SGP in the context of H2-D^b. To be able to follow the activation of this CTL in the recipient animal the non-activated (naïve) CTL from transgenic donor mice was intravenously (i.v.) injected into syngenic recipient mice which differed in the allele of a lymphocyte marker (CD45.1 on transgenic cells or CD45.2 on cells of the recipient mice). […]
To measure the proliferation of the adoptively transferred cells blood was taken from the tail vein of the mice 4 days after the last immunisation and the blood sample was analysed flow cytometrically. […] For flow cytometric analysis of the cells they were stained with fluorescence-marked antibodies (anti-CD8 APC-Cy7-conjugated, anti-CD45.1 PE-conjugated (commercially available from Becton-Dickinson Pharmingen, Hamburg)) and, more precisely, for 30 min in 50 μl FACS buffer on ice in 96-well circular bottomed plates. The cells were washed twice with FACS buffer and analysed in a FACS-canto flow cytometer (Becton-Dickinson Pharmingen, Hamburg). […]
The transgenic CD8^+ cell content in the total population of CD8^+ cells was flow cytometrically determined in the blood or spleen. […] The fluorescence in the FL-2 channel (PE) of the CD8^+ lymphocytes can be seen in each case. […] In all mice the transgenic CD8^+ cells content prior to immunisation and 4 days after immunisation was determined in the spleen (A).

Row | Compound | specific reaction (FIG. 2, functionality of transcutaneously activated CTL) [1] | % transgenic CD8+ in total CD8+, Day 4 Blood ([2]; Group 3: 50 μg peptide (i.d.) alone, day 4, blood) [%] | % transgenic CD8+ in total CD8+, Day 6 Spleen ([2]; Group 3: 50 μg peptide (i.d.) alone, day 6, spleen) [%] | increase in transgenic cells ([2]; peptide applied on its own (without additives, adjuvants)) | Specific lysis (%) ([1]; Group 3: 50 μg peptide (i.d.) alone, 6 days after immunisation) | functional activation of the CTL ([1]; immunisation with peptide only (group Mouse 3), FIG. 1B)
1 | CC(C)Cn1cnc2c(N)nc3ccccc3c21 [imiquimod, 1-(2-methylpropyl-)1H-imidazo[4,5-c]quinolin-4-amine, reference compound] | did not exhibit a specific reaction |  |  |  |  | 
2 | SGPSNTPPEI (Adenovirus type 5) [peptide, MHC class I ligand (H2-Db) from the E1A protein of adenovirus type 5, synthetically produced] | did not exhibit a specific reaction | 4.38 | 2.04 | only a marginal increase | 3.51 | does not lead to functional activation
